pKi: −log10 of the molar value.
How the values were obtained:
[1] = molecular target: T1, Endothelin receptor type B (Homo sapiens, UniProt P24530)
T1 sequence (P24530 whole entry): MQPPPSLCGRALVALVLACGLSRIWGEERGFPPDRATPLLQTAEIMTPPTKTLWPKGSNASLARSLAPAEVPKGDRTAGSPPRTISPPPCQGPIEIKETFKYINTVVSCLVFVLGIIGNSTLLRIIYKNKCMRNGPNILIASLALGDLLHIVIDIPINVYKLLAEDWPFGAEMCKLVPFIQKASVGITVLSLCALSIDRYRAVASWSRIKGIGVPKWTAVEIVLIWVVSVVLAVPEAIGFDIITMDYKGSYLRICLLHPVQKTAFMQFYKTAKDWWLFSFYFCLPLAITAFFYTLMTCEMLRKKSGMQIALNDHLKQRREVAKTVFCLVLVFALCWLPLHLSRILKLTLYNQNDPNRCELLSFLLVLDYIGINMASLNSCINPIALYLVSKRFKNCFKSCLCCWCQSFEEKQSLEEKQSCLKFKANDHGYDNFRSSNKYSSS

Endothelin-1 receptor = molecular target: T2, Endothelin-1 receptor (Homo sapiens, UniProt P25101)
T2 sequence (P25101 whole entry): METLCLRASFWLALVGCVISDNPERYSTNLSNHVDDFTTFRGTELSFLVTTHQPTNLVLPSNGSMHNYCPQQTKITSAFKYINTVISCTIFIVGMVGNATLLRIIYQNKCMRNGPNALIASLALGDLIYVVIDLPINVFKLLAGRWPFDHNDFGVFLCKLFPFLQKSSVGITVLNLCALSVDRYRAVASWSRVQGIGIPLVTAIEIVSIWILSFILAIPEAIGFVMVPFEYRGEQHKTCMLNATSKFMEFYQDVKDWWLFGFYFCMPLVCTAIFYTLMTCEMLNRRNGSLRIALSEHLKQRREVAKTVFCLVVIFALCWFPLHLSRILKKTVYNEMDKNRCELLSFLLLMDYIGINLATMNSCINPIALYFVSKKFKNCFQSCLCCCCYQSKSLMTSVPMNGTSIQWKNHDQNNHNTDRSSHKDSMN

SMILES | pKi [1] | pKi (Endothelin-1 receptor)
CCCCn1ncc(/C=C(\Cc2cc3c(cc2OC)OCO3)C(=O)O)c1-c1ccc(OC)cc1OCc1ccccc1C(=O)O [SB-234551] | 6.30 | 9.89
CCCOc1ccc2c(c1)[C@@H](c1ccc(OC)cc1OCCO)[C@H](C(=O)O)[C@H]2c1ccc2c(c1)OCO2 [Enrasentan] | 6.82 | 8.82
CCCOc1ccc2c(c1)[C@@H](c1ccc(OC)cc1OCC(=O)O)[C@H](C(=O)O)[C@H]2c1ccc2c(c1)OCO2 [(1S,2R,3S)-1-Benzo[1,3]dioxol-5-yl-3-(2-carboxymethoxy-4-methoxy-phenyl)-5-propoxy-indan-2-carboxylic acid] | 7.68 | 9.40

Source: BindingDB's records for PubMed 9694916 (Smithkline Beecham Pharmaceuticals, 1998)
